ChEMBL document CHEMBL4823276, “Comparative studies on the substrate specificity and defucosylation activity of three α-l-fucosidases using synthetic fucosylated glycopeptides and glycoproteins as substrates” (Bioorg Med Chem, 2021)

Assays:
Assay type in all cases: ADME; call rule not given here
[1] = Substrate activity at recombinant His-tagged Lactobacillus casei alpha L-fucosidase expressed in Escherichia coli […] assessed as formation of p-nitrophenyl products at 5 mM measured by UV spectrometer assay; conditions: lacticaseibacillus casei, 5000 µM
[2] = Substrate activity at recombinant His-tagged Bacteroides fragilis alpha L-fucosidase expressed in Escherichia coli BL21(DE3) assessed as formation of p-nitrophenyl products at 5 mM measured by UV spectrometer assay; conditions: 5000 µM
[3] = Substrate activity at recombinant His-tagged Bacteroides fragilis alpha L-fucosidase expressed in Escherichia coli BL21(DE3) assessed as de-fucosylation of N-glycan at 5 mg/ml measured after 21 hrs by LC/MS analysis
[4] = Substrate activity at recombinant His-tagged Lactobacillus casei alpha L-fucosidase expressed in Escherichia coli […] assessed as de-fucosylation of N-glycan at 5 mg/ml measured after 21 hrs by LC/MS analysis; conditions: lacticaseibacillus casei

SMILES	Activity [1]	Activity [2]	Activity [3]	Activity [4]
C[C@@H]1O[C@@H](Oc2ccc([N+](=O)[O-])cc2)[C@@H](O)[C@H](O)[C@@H]1O	Not Active	Active		
CC(=O)N[C@@H]1[C@@H](O)[C@H](O[C@@H]2O[C@H](CO)[C@@H](O[C@@H]3O[C@H](CO[C@H]4O[C@H](CO)[C@@H](O)[C@H](O)[C@@H]4O[C@@H]4O[C@H](CO[C@@H]5O[C@H](CO[C@]6(C(=O)O)C[C@H](O)[C@@H](NC(C)=O)C([C@H](O)[C@H](O)CO)O6)[C@H](O)[C@H](O)[C@H]5O)[C@@H](O)[C@H](O)[C@H]4NC(C)=O)[C@@H](O)[C@H](O[C@H]4O[C@H](CO)[C@@H](O)[C@H](O)[C@@H]4O[C@@H]4O[C@H](CO)[C@@H](O[C@@H]5O[C@H](CO[C@]6(C(=O)O)C[C@H](O)[C@@H](NC(C)=O)C([C@H](O)[C@H](O)CO)O6)[C@H](O)[C@H](O)[C@H]5O)[C@H](O)[C@H]4NC(C)=O)[C@@H]3O)[C@H](O)[C@H]2NC(C)=O)[C@@H](CO[C@H]2O[C@H](C)[C@H](O)[C@H](O)[C@H]2O)O[C@H]1NC(=O)CNC(=O)C[C@H](NC(=O)[C@H](CCC(N)=O)NC(=O)CN)C(=O)N[C@@H](CC(=O)O)C(=O)N[C@H](C(=O)N[C@@H](CO)C(=O)N[C@@H](CCC(N)=O)C(=O)N[C@H](C(=O)N[C@@H](CO)C(=O)N[C@@H](CO)C(=O)N1CCC[C@H]1C(=O)N[C@@H](CO)C(=O)N[C@@H](CC(C)C)C(=O)N1CCC[C@H]1C(=O)N[C@@H](CCCCN)C(=O)N[C@H](C(=O)NCC(=O)NCC(=O)N[C@@H](CO)C(=O)O)[C@@H](C)O)[C@@H](C)O)[C@@H](C)O (some centres undefined)			Not Active	Not Active
